According to patent US20190330189A1, “ANTIBACTERIAL COMPOUNDS” (Janssen Sciences Ireland UC, priority 2015, published 2019):

The molecules below were run on Mycobacterium tuberculosis strain EH 4.0 (361.269) (assay: Test 4: MIC determination, resazurin fluorescence, strain EH 4.0). Conditions: Mycobacterium tuberculosis, read-out: pIC50, Test 4, M. tuberculosis strain EH 4.0 (361.269) (converted).
Assay type: cell-based
Source text: TEST 4 (See Also Test 1 Above; in this Test a Different Strain of Mycobacterium tuberculosis Strain is Employed)
Appropriate solutions of experimental and reference compounds were made in 96 well plates with 7H9 medium. Samples of Mycobacterium tuberculosis strain EH 4.0 (361.269) were taken from cultures in stationary growth phase. These were first diluted to obtain an optical density of 0.3 at 600 nm wavelength and then diluted 1/100, resulting in an inoculum of approximately 5×10 exp5 colony forming units per well. Plates were incubated at 37° C. in plastic bags to prevent evaporation. After 7 days, resazurin was added to all wells.
In the case of `CCc1nc2sc(C)cn2c1C(=O)NCC1CC2(CCN(c3ccc(OC(F)(F)F)cc3)CC2)C1` [Compound 32], the IC50 is reported as 0.0398 µM. `O=C(NCC1CC12CCN(c1ccc(OC(F)(F)F)cc1)CC2)c1cc2n(c1)CCCC2` (stereo not drawn) [Compound 33] was tested, and the IC50 was > 12.6 µM. `CCc1nc2cn(C)ccc-2c1C(=O)NCc1ccc(N2CC3(CC(F)C3)C2)cc1` [Compound 34] was tested, and the IC50 was > 12.6 µM. `O=C(NCc1ccc(N2CC3(C2)CN(c2ccc(OC(F)(F)F)cc2)C3)cc1)c1cc2c([nH]1)CCCC2` [Compound 35] showed an IC50 of 7.94 µM. `CCc1c(C(=O)NCc2ccc(N3CC4(CC(c5ccc(OC(F)(F)F)cc5)C4)C3)cc2)c2ccncc2n1C` [Compound 36] was tested, and the IC50 was 7.94 µM. Work on `O=C(NCc1ccc(N2CC3(CC(c4ccc(OC(F)(F)F)cc4)C3)C2)cc1)c1cc2c([nH]1)CCCC2` [Compound 37] yielded an IC50 of 3.98 µM. With `CCc1c(C(=O)NCC2CC23CCN(c2ccc(OC(F)(F)F)cc2)CC3)c2cc(Cl)cnc2n1C` (stereo not drawn) [Compound 38] the IC50 was > 12.6 µM. For `CCc1c(C(=O)NCC2CC23CCN(c2ccc(OC(F)(F)F)cc2)CC3)c2cc(Cl)ccc2n1C` (stereo not drawn) [Compound 39], the IC50 was > 12.6 µM. With `O=C(NCC1CC12CCN(c1ccc(OC(F)(F)F)cc1)CC2)c1cc2c([nH]1)CCCC2` (stereo not drawn) [Compound 40] the IC50 was > 12.6 µM. For `CCc1nc2n(c1C(=O)NCC1CC13CCN(c1ccc(OC(F)(F)F)cc1)CC3)CCN(C)C2` (stereo not drawn) [Compound 41], the IC50 was 7.94 µM. `O=C(NCc1ccc(N2CC3(C2)CN(c2ccc(OC(F)(F)F)cc2)C3)cc1)c1cc2n(c1)CCCC2` [Compound 42] was tested, and the IC50 was 10 µM. For `CCc1c(C(=O)NCC2CC3(CCN(c4ccc(OC(F)(F)F)cc4)CC3)C2)c2cc(Cl)cnc2n1C` [Compound 43], the IC50 was > 12.6 µM. `O=C(NCC1CC2(CCN(c3ccc(OC(F)(F)F)cc3)CC2)C1)c1cc2c([nH]1)CCCC2` [Compound 44] showed an IC50 of 7.94 µM. In the case of `O=C(NCc1ccc(N2CC3(CC(c4ccc(OC(F)(F)F)cc4)C3)C2)cc1)c1cc2n(c1)CCCC2` [Compound 45], the IC50 is reported as 7.94 µM. `CCc1nc2n(c1C(=O)NCC1CC3(CCN(c4ccc(OC(F)(F)F)cc4)CC3)C1)CCN(C)C2` [Compound 46] gave an IC50 of 7.94 µM. With `CCc1c(C(=O)NCc2ccc(N3CC4(C3)CN(c3ccc(OC(F)(F)F)cc3)C4)cc2)c2ccncc2n1C` [Compound 47] the IC50 was 6.31 µM. In the case of `CCc1nc2n(c1C(=O)NCC1CC13CCN(c1ccc(OC(F)(F)F)cc1)CC3)CCCC2` (stereo not drawn) [Compound 48], the IC50 is reported as 6.31 µM. In the case of `CCc1c(C(=O)NCC2CC23CCN(c2ccc(OC(F)(F)F)cc2)CC3)c2ccncc2n1C` (stereo not drawn) [Compound 49], the IC50 is reported as > 12.6 µM. `CCc1nc2cn(C)ccc-2c1C(=O)NCC1CC2(CCN(c3ccc(OC(F)(F)F)cc3)CC2)C1` [Compound 50] was tested, and the IC50 was > 12.6 µM. For `CCc1nc2ccn(C)cc-2c1C(=O)NCc1ccc(N2CC3(C2)CN(c2ccc(OC(F)(F)F)cc2)C3)cc1` [Compound 51], the IC50 was 6.31 µM. `CCc1c(C(=O)NCC2CC3(CCN(c4ccc(OC(F)(F)F)cc4)CC3)C2)c2ccncc2n1C` [Compound 52] showed an IC50 of 7.94 µM. For `CCc1nc2ccn(C)cc-2c1C(=O)NCC1CC12CCN(c1ccc(OC(F)(F)F)cc1)CC2` (stereo not drawn) [Compound 53], the IC50 was > 12.6 µM. `CCc1nc2cnc(Cl)cn2c1C(=O)NCC1CC12CCN(c1ccc(OC(F)(F)F)cc1)CC2` (stereo not drawn) [Compound 54] was tested, and the IC50 was 7.94 µM. In the case of `CCc1c(C(=O)NCC2CC23CCN(c2ccc(OC(F)(F)F)cc2)CC3)c2cnccc2n1C` (stereo not drawn) [Compound 55], the IC50 is reported as > 12.6 µM. `COc1ccn2nc(C)c(C(=O)NCc3ccc(C4CC5(C4)CN(c4ccc(OC(F)(F)F)cc4)C5)cc3)c2c1` [Compound 56] was tested, and the IC50 was 0.00631 µM. With `COc1ccn2nc(C)c(C(=O)NCc3ccc(N4CC5(C4)CN(c4ccc(OC(F)(F)F)cc4)C5)cc3)c2c1` [Compound 57] the IC50 was 0.00794 µM. `CCc1nc2cnc(Cl)cn2c1C(=O)NCc1ccc(N2CC3(C2)CN(c2ccc(OC(F)(F)F)cc2)C3)cc1` [Compound 58] gave an IC50 of 0.1 µM. In the case of `COc1ccn2nc(C)c(C(=O)NCC3CC4(CCN(c5ccc(OC(F)(F)F)cc5)CC4)C3)c2c1` [Compound 59], the IC50 is reported as 0.316 µM. Molecule `Cc1nc2ncc(Cl)cn2c1C(=O)NCC1CC2(CCN(c3ccc(OC(F)(F)F)cc3)CC2)C1` [Compound 60] has an IC50 of 0.1 µM. `CCc1nc2n(c1C(=O)NCC1CC3(CCN(c4ccc(OC(F)(F)F)cc4)CC3)C1)CCCC2` [Compound 61] gave an IC50 of 0.631 µM. Work on `CCc1nc2sc(C)cn2c1C(=O)NCC1CC12CCN(c1ccc(OC(F)(F)F)cc1)CC2` (stereo not drawn) [Compound 64] yielded an IC50 of 0.1 µM. Molecule `CCc1nc2n(c1C(=O)NCc1ccc(C3CC4(C3)CN(c3ccc(OC(F)(F)F)cc3)C4)cc1)CCCC2` [Compound 65] has an IC50 of 0.01 µM. With `CCc1nc2ncc(Cl)cn2c1C(=O)NCc1ccc(N2CC3(CC(c4ccc(S(F)(F)(F)(F)F)cc4)C3)C2)cc1` [Compound 66] the IC50 was 0.00794 µM. For `CCc1nc2sc(C)cn2c1C(=O)NCc1ccc(C2CC3(C2)CN(c2ccc(OC(F)(F)F)cc2)C3)cc1` [Compound 67], the IC50 was 0.01 µM. For `CCc1nc2n(c1C(=O)NCc1ccc(C3CC4(C3)CN(c3ccc(OC(F)(F)F)cc3)C4)cc1)CCN(C)C2` [Compound 69], the IC50 was 0.0316 µM. Work on `CCc1nc2n(c1C(=O)NCc1ccc(N3CC4(C3)CN(c3ccc(OC(F)(F)F)cc3)C4)cc1)CCN(C)C2` [Compound 70] yielded an IC50 of 0.316 µM. Work on `CCc1nc2n(c1C(=O)NCc1ccc(N3CC4(CC(c5ccc(OC(F)(F)F)cc5)C4)C3)cc1)CCN(C)C2` [Compound 71] yielded an IC50 of 0.316 µM. `CCc1nc2ccc(Cl)cn2c1C(=O)NCc1ccc(N2CC3(CC(Oc4ccc(C(F)(F)F)cc4)C3)C2)cc1` [Compound 72] gave an IC50 of 0.01 µM. `CCc1nc2ncc(Cl)cn2c1C(=O)NCc1ccc(N2CC3(CC(Oc4ccc(C(F)(F)F)cc4)C3)C2)cc1` [Compound 73] showed an IC50 of 0.2 µM. For `CCc1nc2n(c1C(=O)NCc1ccc(N3CC4(CC(Oc5ccc(C(F)(F)F)cc5)C4)C3)cc1)CCN(C)C2` [Compound 74], the IC50 was 0.0631 µM. Work on `CCc1nc2ccc(Cl)cn2c1C(=O)NCc1ccc(N2CC3(CC(c4cccnc4)C3)C2)cc1` [Compound 77] yielded an IC50 of 0.794 µM. `CCc1nc2n(c1C(=O)NCc1ccc(N3CC4(CC(F)C4)C3)cc1)CCN(C)C2` [Compound 78] was tested, and the IC50 was 2.51 µM. With `CCc1c(C(=O)NCc2ccc(N3CC4(C3)CN(c3ccc(OC(F)(F)F)cc3)C4)cc2)c2cc(Cl)cnc2n1C` [Compound 79] the IC50 was > 12.6 µM. In the case of `CCc1c(C(=O)NCc2ccc(N3CC4(C3)CN(c3ccc(OC(F)(F)F)cc3)C4)cc2)c2cc(Cl)ccc2n1C` [Compound 80], the IC50 is reported as > 12.6 µM. With `CCc1nc2ccc(Cl)cn2c1C(=O)NCc1ccc(N2CCC3(CC2)CC(F)C3)cc1` [Compound 81] the IC50 was 0.00501 µM. For `CCc1nn2ccc(C)nc2c1C(=O)NCc1ccc(N2CC3(CC(c4ccc(OC(F)(F)F)cc4)C3)C2)cc1` [Compound 97], the IC50 was > 12.6 µM. `CCc1nn2c(C)ccnc2c1C(=O)NCc1ccc(N2CC3(CC(c4ccc(OC(F)(F)F)cc4)C3)C2)cc1` [Compound 98] was tested, and the IC50 was > 12.6 µM. `CCc1nc2cn(C)ccc-2c1C(=O)NCC1CC12CCN(c1ccc(OC(F)(F)F)cc1)CC2` (stereo not drawn) [Compound 99] was tested, and the IC50 was > 12.6 µM. In the case of `O=C(NCC1CC2(CCN(c3ccc(OC(F)(F)F)cc3)CC2)C1)c1cc2n(c1)CCCC2` [Compound 100], the IC50 is reported as > 12.6 µM. For `CCc1nc2cnc(Cl)cn2c1C(=O)NCC1CC2(CCN(c3ccc(OC(F)(F)F)cc3)CC2)C1` [Compound 101], the IC50 was 1.58 µM. In the case of `CCc1nn2ccc(C)nc2c1C(=O)NCc1ccc(C2CC3(C2)CN(c2ccc(OC(F)(F)F)cc2)C3)cc1` [Compound 102], the IC50 is reported as 3.98 µM. For `CCc1nn2c(C)ccnc2c1C(=O)NCc1ccc(C2CC3(C2)CN(c2ccc(OC(F)(F)F)cc2)C3)cc1` [Compound 103], the IC50 was 7.94 µM. `CCc1nc2ccn(C)cc-2c1C(=O)NCc1ccc(N2CC3(CC(c4ccc(OC(F)(F)F)cc4)C3)C2)cc1` [Compound 104] was tested, and the IC50 was > 12.6 µM. In the case of `CCc1nn2c(C)ccnc2c1C(=O)NCC1CC2(CCN(c3ccc(OC(F)(F)F)cc3)CC2)C1` [Compound 105], the IC50 is reported as > 12.6 µM. `CCc1nn2ccc(C)nc2c1C(=O)NCC1CC12CCN(c1ccc(OC(F)(F)F)cc1)CC2` (stereo not drawn) [Compound 106] was tested, and the IC50 was > 12.6 µM. `CCc1nn2ccc(C)nc2c1C(=O)NCC1CC2(CCN(c3ccc(OC(F)(F)F)cc3)CC2)C1` [Compound 107] was tested, and the IC50 was > 12.6 µM. With `CCc1nn2c(C)ccnc2c1C(=O)NCC1CC12CCN(c1ccc(OC(F)(F)F)cc1)CC2` (stereo not drawn) [Compound 108] the IC50 was > 12.6 µM. For `CCc1nc2ccn(C)cc-2c1C(=O)NCC1CC2(CCN(c3ccc(OC(F)(F)F)cc3)CC2)C1` [Compound 109], the IC50 was > 12.6 µM. `CCc1[nH]c2ncc(Cl)cc2c1C(=O)NCC1CC12CCN(c1ccc(OC(F)(F)F)cc1)CC2` (stereo not drawn) [Compound 110] was tested, and the IC50 was > 12.6 µM. In the case of `CCc1c(C(=O)NCC2CC3(CCN(c4ccc(OC(F)(F)F)cc4)CC3)C2)c2cnccc2n1C` [Compound 111], the IC50 is reported as > 12.6 µM. `CCc1nc2ccn(C)cc-2c1C(=O)NCc1ccc(C2CC3(C2)CN(c2ccc(OC(F)(F)F)cc2)C3)cc1` [Compound 112] showed an IC50 of 3.16 µM. In the case of `CCc1[nH]c2ncc(Cl)cc2c1C(=O)NCC1CC2(CCN(c3ccc(OC(F)(F)F)cc3)CC2)C1` [Compound 113], the IC50 is reported as > 12.6 µM. With `CCc1c(C(=O)NCc2ccc(C3CC4(C3)CN(c3ccc(OC(F)(F)F)cc3)C4)cc2)c2cc(Cl)ccc2n1C` [Compound 114] the IC50 was 12.6 µM. With `O=C(NCc1ccc(C2CC3(C2)CN(c2ccc(OC(F)(F)F)cc2)C3)cc1)c1cc2c([nH]1)CCCC2` [Compound 115] the IC50 was 3.16 µM. For `CCc1nc2ccc(Cl)cn2c1C(=O)NCc1ccc(C2CC3(C2)CN(C=O)C3)cc1` [Compound 116], the IC50 was 0.316 µM.

Same assay, conditions: Test 4, M. tuberculosis strain EH 4.0 (361.269)
`CCc1nc2ccc(Cl)cn2c1C(=O)NCC1CC12CCN(c1ccc(OC(F)(F)F)cc1)CC2` (stereo not drawn) [Compound 1] gave a pIC50 of 7.0. `CCc1nc2ccc(Cl)cn2c1C(=O)NCC1CC12CCN(c1ccc(OC(F)(F)F)cc1)CC2` (stereo not drawn) [Compound 63] gave a pIC50 of 6.5.

These molecules were tested on Mycobacterium tuberculosis strain H37Rv (assay: Test 1: MIC determination, resazurin fluorescence, M. tuberculosis H37Rv). Conditions: Mycobacterium tuberculosis, H37RV, read-out: pIC50 (converted).
Assay type: cell-based
Molecule `CCc1nc2ccc(Cl)cn2c1C(=O)NCC1CC12CCN(c1ccc(OC(F)(F)F)cc1)CC2` (stereo not drawn) [Compound 1] has an IC50 of 0.00933 µM.

Same assay, conditions: Mycobacterium tuberculosis, H37RV, read-out: pIC50 * (converted)
With `CCc1nc2ccc(Cl)cn2c1C(=O)NCC1CC12CCN(c1ccc(OC(F)(F)F)cc1)CC2` (stereo not drawn) [Compound 1] the IC50 was 0.0132 µM.
